Laboratory results reported in US8551445B2, “Preparation and use of alkylating agents” (The Queen's Medical Center, priority 2003, dated 2013).

Assays:
[1] = LAL pyrogen test (Charles River Labs Endosafe); settings: final purified solutions in physiologic saline
[2] = Culture of final purified solutions for microorganism growth (sterility); settings: 1 mL of final purified solution in physiologic saline; enriched thioglycollate at 37° C. and trypticase soy broth at 23° C.; 2 weeks
Procedure: The final purified solutions in physiologic saline [^18F]FCH and [^18F]FECh were cultured (1 mL) for microorganisms for growth in enriched thioglycollate at 37° C. and trypticase soy broth media at 23° C. […] A positive control standard is always included in the assay. [^18F]FCH is currently in an FDA approved pre-clinical IND safety trial in humans.

[3] = FDA approved pre-clinical IND safety trial in humans; type: in vivo; settings: after about fifty trials

Row | SMILES | pyrogens (LAL) [1] | growth of microorganisms in culture [2] | adverse effects [3]
1 | C[N+](C)(CCO)CC[18F] [[^18F]FECh, [^18F]N,N-Dimethyl-N-fluoroethylethanolamine] | pyrogen free | No growth | 
2 | C[N+](C)(C[18F])CCO [[^18F]FCH, [^18F]N,N-Dimethyl-N-fluoromethylethanolamine] | pyrogen free | No growth | no adverse effects
